Data on five compounds can be found in US11332455B2, “α,β-unsaturated amide compound” (KYOWA KIRIN CO., LTD., priority 2015, dated 2022).

Common to all, as to test: Cell growth inhibitory effect, cell counting kit 8, 6 days
Holding throughout (type): cell-based
On the technique in general: Tetrazolium assays rely on reduction of a dye to a coloured formazan, in cell work by metabolically active cells.

The subject of assay [1] is HuH28, a human liver cancer cell line. The settings on record: 144 h, HuH28 cells, 6 days incubation. In short, it runs like this: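 HuH28 human liver cancer cells (JCRB0426) were maintained below 80% density in RPMI1640 with 10% FBS and grown in 96-well flat-bottom plates. Test compound was serially diluted to 5 times final concentration and added with DMSO at 0.1%, then incubated for 6 days at 37° C in 5% CO2. Viable cells were counted with cell counting kit 8 at dosing and on day 6, using a 2 or 3 hour color reaction and absorbance at 450 nm. GI50 was derived from growth inhibition rates.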

Assay [2] concerns NCI-H226 cells, a human mesothelioma cell line. The settings on record: 144 h, 6 days incubation, group less than 100 nmol/L. The method, boiled down: (§1)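 Cells grown in RPMI1640 with 10% FBS, plated at 500 cells/well (NCI-H226, NCI-H322) and incubated one day before serially diluted compound was added (0.1% DMSO final). After 6 days at 37 °C, 5% CO2, CCK-8 colour developed 2–3 h and A450 read; GI50 derived from growth inhibition rate.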

The subject of assay [3] is NCI-H322 cells, a human lung cancer cell line. The note with it: 144 h, 6 days incubation. The method, boiled down:
as §1

SMILES strings stand for the structures.

Take `C=CC(=O)NCc1ccc(Oc2ccc(C(F)(F)F)cc2)c2cnccc12` [Compound 223, N-([8-{4-(Trifluoromethyl)phenoxy}isoquinolin-5-yl]methyl)acrylamide]: the figures for the GI50 in assay [1], in assay [2] and in assay [3] were under 3000 nM, under 100 nM and under 1000 nM, respectively.

With `C=CC(=O)NCc1ncc(Oc2ccc(C(F)(F)F)cc2)c2ccccc12` [Compound 224, N-([4-{4-(Trifluorophenyl)phenoxy}isoquinolin-1-yl]methyl)acrylamide], the GI50 (as a rule, the concentration giving 50% growth inhibition) in assay [1] was under 3000 nM; in assay [2], under 100 nM; in assay [3] it was under 1000 nM.

Regarding `C=CC(=O)NCc1ccc(Oc2ccc(C(F)(F)F)cc2)c2ccncc12` [Compound 225, N-([5-{4-(Trifluoromethyl)phenoxy}isoquinolin-8-yl]methyl)acrylamide], the GI50 in assay [1] was under 3000 nM; in assay [2], under 100 nM; in assay [3], under 1000 nM.

For `C=CC(=O)Nc1cnc(Oc2ccc(Cl)cc2)c2ncccc12` [Compound 226, N-{8-(4-chlorophenoxy)-1,7-naphthyridin-5-yl}acrylamide], the GI50 in assay [1] is under 3000 nM; in assay [2], under 100 nM; in assay [3] it was under 1000 nM.

Regarding `C=CC(=O)NCc1cnc(Oc2ccc(Cl)cc2)c2ncccc12` [Compound 227, N-[{8-(4-Chlorophenoxy)-1,7-naphthyridin-5-yl}methyl]acrylamide], the concentration for 50% growth inhibition (GI50) in assay [1] is under 3000 nM; in assay [2] it was under 100 nM; in assay [3], under 1000 nM.
